Source: patent US12589099B2 (priority 2021, dated 2026)

Tests used:
[1] = tested on: moderate traumatic brain injury (TBI) induced by controlled cortical impact (CCI); experiment: Foot-fault test (right forelimb and hindlimb) after TBI; type: in vivo, male Wistar rats
Method: FIG. 2: The figure illustrates functional tests that are carried out on healthy (sham surgery) no treatment, vehicle treated and ALPHA-1062 treated rats to assess sensorimotor and cognitive function after TBI. Sensimotor function tests. a) The figure depicts tests to assess the modified neurological severity score (mNSS). […] The animal is required to balance over a grid and the frequency of steps missing the grid are counted. This test assesses the functionality of the injured parietal cortex of the rat's brain. c) The adhesive removal test consists of applying adhesive tape on each forepaw of the animal and measuring the time-to-contact and the time-to-remove them. This behavior requires correct paw and mouth sensitivity (time-to-contact) and correct dexterity (time-to-remove). Cognitive function tests: a) This picture illustrates the Morris water maze that comprises that a rat is placed in a large circular pool (picture on the left) and is required to find an invisible platform that allows it to escape the water by using various visuo-spatial cues. This test is used to study spatial learning and memory and assesses hippocampal and select cortical brain region function. Usually, the path of the rat through the pool is tracked (picture on the right) and the time spend in the proximity of the platform as well as the time needed until the platform is found by the rat are measured. b) For the new/novel object recognition (NOR) test, after a habituation time in the test space (picture on far left) rats are given the opportunity to explore two identical objects (A) for a predetermined period of time (picture in the middle). After a delay, the animals are then presented with two objects to explore, one of which is the same as in the first exploration trial (A), the other a new object (B) (picture on the right). Depending on the length of the delay between the two trials or depending on the extend of cortical damage, the rats will either explore the novel object for a greater time period, indicating memory for the familiar object, or will explore the novel and familiar objects for the same amount of time, indicating a lack of recall or loss of memory for the familiar object presented during the initial trial.
(§1) Young adult (2-3 months) male Wistar rats were subjected to a moderate traumatic brain injury (TBI) induced by controlled cortical impact (CCI). Animal models of TBI including the CCI model and functional tests have been described in detail in peer reviewed publications (Xiong et al., 2013, Nat Rev Neurosci.; Zhang et al., 2016, J Neurosurg.; Zhang et al., 2016, Neurochem Int.; Zhang et al., 2021, J Neurotrauma). Injury consisted of a single impact at 4.0 m/sec, 2.5 mm deformation to the left parietal cortex. In addition, a group of animals was left healthy/not injured to serve as a healthy control.
The animals were divided into 3 groups: • 1) TBI+Vehicle (purified water, n=10) • 2) TBI+ALPHA-1062 (4.5 mg/kg) (n=10) • 3) Healthy/not injured and not treated (Sham surgery) (n=10)
The substance used in this study was ALPHA-1062 at 4.5 mg/kg. As control treatment (vehicle) purified water was administered intranasally (IN). The ALPHA-1062 and the control treatment were initiated 2 hours after injury and continued twice daily (with a 6-hour interval) for 35 consecutive days.
In addition, neurological functional tests were performed by conducting footfault tests and observations to determine the modified neurological severity score (mNSS) at 1, 7, 14, 21, 28, 35 days after TBI (see Table 1). The mNSS is a composite score assessing motor, sensory, balance, and reflex functions. Details of the tests and scoring system can be found in Table 2.
Animals were monitored as they walked across a mesh for the number of times their right forelimb “missed” proper placement, indicating reduced locomotor skill. This is indicative of trauma in the left side of the brain. The results are depicted in FIG. 3. […]

[2] = tested on: NeuN and BrdU double positive granule neurons in the dentate gyrus; experiment: NeuN/BrdU double label, newborn neurons in the dentate gyrus 35 days post-TBI; type: in vivo, male Wistar rats; conditions: 4.5 mg/kg IN twice daily, 35 days following TBI
Text: as §1
The substance used in this study was ALPHA-1062 at 4.5 mg/kg. As control treatment (vehicle) purified water was administered intranasally (IN). The ALPHA-1062 and the control treatment were initiated 2 hours after injury and continued twice daily (with a 6-hour interval) for 35 consecutive days. […]
Histological assessment was performed including quantitative image analysis protocols; followed by statistical analysis of the data. […]
For cell counting and quantitation NeuN+ cells were examined in the ipsilateral cortex, DG, CA1, and CA3 regions of the ipsilateral hippocampus. […] The number of BrdU+ cells (red-fluorophore) and NeuN (green-fluorophore)/BrdU-colabeled cells (yellow after merge) were counted. […]

## COc1ccc2c3c1O[C@H]1C[C@@H](OC(=O)c4ccccc4)C=C[C@@]31CCN(C)C2 [ALPHA-1062, (4aS,6R,8aS)-5,6,9,10,11,12-hexahydro-3-methoxy-11-methyl-4aH-[1]benzofuro[3a,3,2-ef][2]benzazepin-6-ol benzoate]
[1]; 4.5 mg/kg IN twice daily, by day 28 (D28)
  foot-fault performance compared to uninjured (sham) animals: statistically indistinguishable
[1]; 4.5 mg/kg IN twice daily, from the first day of treatment, vs vehicle
  locomotor skill in fore- and hindlimb foot-fault test, acute: statistically significant preservation of locomotor skill
[1]; 4.5 mg/kg IN twice daily, throughout the study, vs vehicle
  recovery of locomotor skill in fore- and hindlimb foot-fault test: persistently statistically significantly improved recovery
[1]; 4.5 mg/kg IN, 2 h post injury, twice daily, 35 days, vs vehicle after TBI (FIG. 3)
  right forelimb foot faults during the walk over a mesh: significantly fewer foot faults
[1]; 4.5 mg/kg IN, 2 h post injury, twice daily, 35 days, vs vehicle after TBI (FIG. 4)
  right hindlimb foot faults during the walk over a mesh: significantly fewer foot faults
[1]; rats after TBI, compared to healthy sham animals
  Footfault, performance over SHAM: equivalent to
[1]; rats after TBI, compared to vehicle treatment
  Footfault, performance over VEHICLE: superior
[2]
  NeuN and BrdU double positive granule neurons compared to both vehicle-treated and sham surgery animals: significantly higher (p<0.05) numbers
